Test results as given in patent publication US9494576B2, “Methods for detecting contaminants in solutions containing glucose polymers” (ROQUETTE FRERES, priority 2011, dated 2016).
Like-named read-outs stand apart in the source and are kept apart here.

What was measured:
TLR2 [1] = biological target: T1, TLR2 (Homo sapiens, UniProt O60603); assay: SEAP production by HEK-BLUE hTLR2 line (HEK-TLR2); format: cell-based
Method: The HEK-BLUE cell lines (InvivoGen) are lines modified by stable transfection with vectors encoding innate immunity receptors. These cells are also cotransfected with a reporter gene which produces a secreted form of alkaline phosphatase (SEAP: secreted embryonic alkaline phosphatase), the synthesis of which is under the direct control of the signaling pathway associated with the receptor(s) expressed in the same cell line. […]
(§1) The RAW-BLUE and HEK-BLUE cells are cultured according to the supplier's recommendations. In particular, the selection pressure for the plasmids encoding the inflammatory molecule receptors (TLR2 or NOD2) and encoding the SEAP is provided by adding, to the culture medium, the HEK-BLUE Selection/blasticidin antibiotics. At 75% confluence, the cells are resuspended at a cell density of 0.28×10^6 cells/ml. Before stimulation, 180 μl of the cell suspension are distributed into the culture wells (96-well plate), i.e. 50 000 cells/well. The cells are then stimulated for 24 h by adding 20 μl of the test samples (in ten-times concentrated form). The stimulation lasts from 16 to 24 h.
(§2) The production of SEAP in response to the contaminated molecules is estimated by measuring the phosphatase activity according to the protocol supplied by the manufacturer: 20 μl of culture supernatant are diluted in 180 μl of QUANTI-BLUE. The color develops at 37° C. and the reading is carried out, at various times, at 620 nm. The data are expressed as absorbance after subtraction of the background noise, obtained by adding the same volume of nonconditioned culture medium to the reaction medium of the enzyme.
(§3) The following experimental conditions were selected: • final glucose polymer concentration: 37.5 mg/ml for the HEK-BLUE-cells, and 50 mg/ml for the RAW-BLUE cells, • enzymatic reaction: 50 μl of conditioned medium+150 μl of SEAP reagent, • minimum reaction time: 60 min.

NOD2 = NOD2 (Homo sapiens, UniProt Q9HC29); assay: SEAP production by HEK-BLUE hNOD2 line (HEK-NOD2); format: cell-based
From the text: The HEK-BLUE cell lines (InvivoGen) are lines modified by stable transfection with vectors encoding innate immunity receptors. These cells are also cotransfected with a reporter gene which produces a secreted form of alkaline phosphatase (SEAP: secreted embryonic alkaline phosphatase), the synthesis of which is under the direct control of the signaling pathway associated with the receptor(s) expressed in the same cell line.
(§4) This line, which naturally expresses virtually all the innate immunity receptors, is used as a positive control in the tests.
as §1, §2
In the new procedure referred to as without subculturing, the HEK-NOD2 cells are conditioned in wells (10 000/well) and cultured for three days. Before stimulation, the culture medium is removed and replaced with a medium containing 1% of FCS and the solutions to be assayed. In this case, the SEAP response is 5-6 times greater than the negative control, which is compatible with a test for detecting MDP in contaminated solutions (FIG. 12).
as §3

HEK-BLUE Null2 line = assay: SEAP production by HEK-BLUE Null2 control line (HEK-Null); format: cell-based
Method: as §4, §1, §2

THP-1 cells [2] = assay: Production of RANTES by differentiated (MDP-sensitized) THP-1 cells, ELISA; format: cell-based; conditions: for Detection threshold / EC50: RANTES; for Detection threshold / EC50 / Sensitivity: without MDP; for Sensitivity: per g of polymer at 25 mg/ml; for synergistic effect on the production of RANTES: sensitizer added to PGN/LPS: MDP 10 μg/ml, f-MLP 1, 10, 100 nM, LPS 25 pg/ml
Method: (§5) The THP-1 cells (88081201, ECACC) are cultured routinely in the laboratory.
(§6) For the pro-inflammatory activation experiments, the THP-1 cells are differentiated for 3 days in the presence of phorbol ester (PMA). In particular, the cells are placed in culture in 200 μl of complete medium in the presence of 20 nM of PMA for 72 h (final cell density: 0.75×10^6 cells/ml).
(§7) The differentiated THP-1 cells (0.75×10^6 cells/ml) are placed in culture in 200 μl of complete medium, and then incubated in the presence of the various test samples.
(§8) Each analysis is carried out in triplicate.
(§9) The cell supernatants are collected in order to assay the secreted cytokines after 8 h of stimulation for TNF-α, and 20 h for RANTES.
(§10) The ELISA assays are carried out according to the indications given by the supplier.
The following experimental conditions are selected: • final concentration of differentiated THP-1 cells: 0.75×10^6 cells/ml, […], • final glucose polymer concentration: 25 mg/ml, • response: ELISA assay of the production of RANTES after 20 h of stimulation.

THP-1 cells [3] = format: cell-based
Method: as §5, §6, §7, §8, §9, §10

RAW-BLUE cells = assay: SEAP production by RAW-BLUE line; format: cell-based, mouse; conditions: for Detection threshold / EC50: RAW-BLUE line; for Sensitivity: per g of polymer at 50 mg/ml
Method: as §4, §1, §2, §3

mononuclear cells = conditions: background statement, cited from earlier work
TLR2 [4] = biological target: T1, TLR2; assay: Peptidoglycan assay method with HEK-BLUE hTLR2 cells, with or without mutanolysin treatment; format: cell-based
Method: The assay is based on the specific recognition of PGNs by a line expressing the TLR2 receptor and on the production of an enzymatic activity that is measurable via the activation of the signaling pathway associated with TLR2.
The dose-response curve was produced with standard S. aureus PGN (FIG. 21).
The HEK-BLUE cells are incubated with increasing concentrations of standard, and the cell response is measured by quantifying the enzymatic activity produced.
The result is a conventional sigmoid cell response curve: • part (A) corresponds to the responses obtained with low concentrations of PGN, below those which give effective activation of TLR2. This nonlinear zone therefore corresponds to the threshold limit of detection of the method. In such a way as to include the variability of the method, this detection threshold is estimated at three times the value of the background noise (response obtained in the absence of stimulus). • part (B) is the most interesting since a linear response is observed. This effective-response zone makes it possible to determine a direct relationship between the cell response and the level of PGN. It is therefore the assaying zone; • part (C) corresponds to a saturation of the cell response in the presence of PGN concentrations which are too high. […]
The PGN assays are carried out on glucose polymer solutions. The sample requiring the PGN quantification is incubated with HEK-BLUE hTLR2 cells, and the cell response is measured by quantifying the enzymatic activity produced. The amount of PGN contained in the sample can be determined by referring to the dose-response curves. […]
The samples were treated in the presence of 2500 U/ml of mutanolysin for 16 h at 37° C., and then added to the HEK-TLR2 cells. The cell response was measured by following the activity of the SEAP produced, according to the conditions described in example 3. […]
The absorbance values were reported on the calibration curves established under the same conditions with the standard PGN (FIG. 23), so as to determine the PGN concentrations present in the glucose polymers.

[5] = test of resumption of growth, FIG. 8, supplier's culture procedure

NOD2, sequence (Q9HC29 whole entry): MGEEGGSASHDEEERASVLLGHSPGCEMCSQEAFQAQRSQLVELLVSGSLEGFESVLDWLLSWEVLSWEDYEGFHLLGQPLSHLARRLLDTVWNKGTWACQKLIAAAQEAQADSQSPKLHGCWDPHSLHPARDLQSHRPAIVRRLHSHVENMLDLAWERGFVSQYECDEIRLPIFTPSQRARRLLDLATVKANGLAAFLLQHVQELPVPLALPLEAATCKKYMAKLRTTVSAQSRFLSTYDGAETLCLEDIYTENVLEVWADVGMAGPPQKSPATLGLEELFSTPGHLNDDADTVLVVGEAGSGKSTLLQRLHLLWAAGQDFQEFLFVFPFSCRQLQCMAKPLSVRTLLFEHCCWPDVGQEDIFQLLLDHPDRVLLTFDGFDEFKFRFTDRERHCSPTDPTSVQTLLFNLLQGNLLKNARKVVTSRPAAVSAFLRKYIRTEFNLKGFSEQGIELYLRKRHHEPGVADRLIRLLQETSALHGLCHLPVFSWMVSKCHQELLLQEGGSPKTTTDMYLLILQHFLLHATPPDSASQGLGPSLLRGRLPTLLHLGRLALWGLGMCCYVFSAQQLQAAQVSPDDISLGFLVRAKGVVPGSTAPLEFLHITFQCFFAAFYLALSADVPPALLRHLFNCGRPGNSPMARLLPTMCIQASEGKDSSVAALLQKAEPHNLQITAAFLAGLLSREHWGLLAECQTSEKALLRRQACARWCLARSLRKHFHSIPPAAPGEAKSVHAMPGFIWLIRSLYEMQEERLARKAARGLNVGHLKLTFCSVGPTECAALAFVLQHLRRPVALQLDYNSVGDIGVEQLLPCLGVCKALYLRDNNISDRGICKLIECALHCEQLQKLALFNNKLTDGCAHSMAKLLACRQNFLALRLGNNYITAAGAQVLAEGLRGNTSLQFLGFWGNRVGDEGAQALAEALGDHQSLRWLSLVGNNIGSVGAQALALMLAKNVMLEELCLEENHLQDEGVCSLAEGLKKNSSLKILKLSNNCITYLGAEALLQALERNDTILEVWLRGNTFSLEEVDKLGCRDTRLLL
T1 sequence (O60603 21-784): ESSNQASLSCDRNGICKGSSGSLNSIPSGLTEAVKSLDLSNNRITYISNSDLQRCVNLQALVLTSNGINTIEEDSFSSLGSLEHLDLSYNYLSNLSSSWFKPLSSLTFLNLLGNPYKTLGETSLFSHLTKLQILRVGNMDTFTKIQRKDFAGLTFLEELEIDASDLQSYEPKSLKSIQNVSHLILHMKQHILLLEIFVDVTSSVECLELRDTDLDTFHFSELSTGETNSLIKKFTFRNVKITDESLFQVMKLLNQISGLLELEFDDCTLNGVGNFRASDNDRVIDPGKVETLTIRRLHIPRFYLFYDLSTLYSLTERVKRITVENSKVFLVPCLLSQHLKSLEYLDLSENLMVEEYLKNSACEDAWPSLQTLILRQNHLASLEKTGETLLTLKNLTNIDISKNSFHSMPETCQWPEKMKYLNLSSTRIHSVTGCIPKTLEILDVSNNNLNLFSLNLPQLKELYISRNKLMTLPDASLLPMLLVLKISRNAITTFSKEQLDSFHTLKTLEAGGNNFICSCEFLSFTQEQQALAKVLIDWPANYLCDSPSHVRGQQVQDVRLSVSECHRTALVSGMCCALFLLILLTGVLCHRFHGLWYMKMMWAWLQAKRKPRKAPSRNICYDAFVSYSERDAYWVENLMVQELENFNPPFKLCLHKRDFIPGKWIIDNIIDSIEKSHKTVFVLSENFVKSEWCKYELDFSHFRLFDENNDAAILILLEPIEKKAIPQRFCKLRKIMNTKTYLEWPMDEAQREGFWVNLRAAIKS

## Tumor Necrosis Factor alpha [TNF-α]
TLR2 [1]
  SEAP response of HEK-TLR2 cells to inflammatory molecules: respond
NOD2; [5]
  SEAP response of HEK-NOD2 cells: responds only very weakly
HEK-BLUE Null2 line
  SEAP response of HEK-Null cells: respond

## lipoteichoic acid [LTA]
TLR2 [1]
  SEAP response of HEK-TLR2 cells to inflammatory molecules: weaker

## Lipopolysaccharides [LPS]
THP-1 cells [2]
  Detection threshold: 10 ± 7 pg/mL
  EC50: 0.0009 ± 0.0001 µg/mL
  Sensitivity: 400 ± 280 pg/g
  synergistic effect on the production of RANTES: synergistic effect of the two agonists is visible
THP-1 cells [3]; sensitizer added to PGN/LPS: MDP 10 μg/ml, LPS 25 pg/ml
  synergistic effect on the production of TNF-α: synergistic effect of the two agonists is visible
RAW-BLUE cells
  SEAP response of RAW-BLUE cells to inflammatory molecules: weak
  detection threshold relative to that of the sensitized THP-1 cells: approximately 50 times
  Detection threshold: 0.24 ± 0.06 ng/mL
  EC50: >0.01 µg/mL
  Sensitivity: 4.8 ± 1.2 ng/g
Mononuclear cells
  concentration inducing a significant response: about 1 ng/ml

## CC(=O)N[C@H]1C(O)O[C@H](CO)[C@@H](O)[C@@H]1O[C@H](C)C(=O)N[C@@H](C)C(=O)N[C@H](CCC(=O)O)C(N)=O (mixture of isomers) [MDP, muramyl dipeptide]
THP-1 cells [2]; MDP 10 μg/ml
  increase of the sensitivity of the THP-1 cells to LPS and PGN (factor): 5
THP-1 cells [2]; minimum dose 1 μg/ml
  synergistic effect on the production of RANTES and of TNF-α in response to PGN and LPS: does not induce a significant synergistic effect
THP-1 cells [2]
  synergistic effect on the production of RANTES: clearly show a synergistic effect
THP-1 cells [3]
  synergistic effect on the production of TNF-α: not very marked
NOD2; HEK-NOD2 line
  Detection threshold: 1.5 ± 0.5 ng/mL
  EC50: 0.012 ± 0.006 µg/mL
NOD2; per g of polymer at 37.5 mg/ml
  Sensitivity: 40 ± 13 ng/g
NOD2; procedure without subculturing, 10 000 cells/well, FIG. 12
  SEAP response relative to the negative control: 5-6 times
NOD2; selected conditions, FIG. 16
  SEAP response of HEK-NOD2 cells: respond effectively
NOD2; [5]
  SEAP response of HEK-NOD2 cells: responds only very weakly
HEK-BLUE Null2 line
  SEAP response of HEK-Null cells: insensitive

## formyl-Met-Leu-Phe tripeptide [f-MLP]
THP-1 cells [2]
  synergistic effect on the production of RANTES: no synergistic effect was observed

## peptidoglycans [PGN]
THP-1 cells [2]
  EC50: 1.2 ± 0.7 µg/mL
  Sensitivity: 580000 ± 340000 pg/g
THP-1 cells [2]; response > 3 x SD of background noise
  Detection threshold: 14500 ± 8500 pg/mL
TLR2 [1]
  PGN levels detected by the HEK-TLR2 line: below 2 ng/g of glucose polymer
  SEAP response of HEK-TLR2 cells to inflammatory molecules: responds effectively
  reduction of reactivity for the HEK-TLR2 cells after passing through a 0.22 μm filter: approximately 50%
  sensitivity threshold relative to the sensitized THP-1 cells: 50 times
TLR2 [1]; HEK-TLR2 line
  Detection threshold: 0.07 ± 0.04 ng/mL
  EC50: 0.0031 ± 0.0025 µg/mL
TLR2 [1]; listed as PUN
  SEAP response of HEK-TLR2 cells to inflammatory molecules: respond very effectively
TLR2 [1]; per g of polymer at 37.5 mg/ml
  Sensitivity: 1.9 ± 1.1 ng/g
RAW-BLUE cells
  SEAP response of RAW-BLUE cells to inflammatory molecules: respond well
  Detection threshold: 2.1 ± 1.5 ng/mL
  EC50: 0.21 ± 0.075 µg/mL
  Sensitivity: 42 ± 30 ng/g
HEK-BLUE Null2 line
  SEAP response of HEK-Null cells: insensitive
TLR2 [4]; 2500 U/ml, 16 h, 37° C., absence of glucose polymer
  reduction of the response of the HEK-TLR2 cells by mutanolysin treatment: more than 50%
TLR2 [4]; in the presence of 7.5% of polymer
  response of the HEK-TLR2 cells after mutanolysin treatment: improved
TLR2 [4]; in the presence of 37.5% of polymer
  response of the HEK-TLR2 cells after mutanolysin treatment: unchanged
Mononuclear cells; w/w ratio
  concentration required for a similar response, relative to LPS: at least 100 times
